Data as given in US20010025105A1, “Certain substituted 1-aryl-3-piperazine-1'-yl propanones” (Molecular Geriatarics Corporation, priority 1997, published 2001).

System: TG3 immunoreactivity in OKA treated MSN1a cells
Assay: MSN1a cell culture model, ELISA with TG3 antibody, okadaic acid treated cells
Type: cell-based, human
Details: 1 μM OKA, 2 hrs at 37° C., read-out: IC50 for inhibition of TG3 immunoreactivity in OKA treated MSN1a cells
In short: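 Human MSN1a neuroblastoma cells (2×10^4/well) in KRH pH 7.4 were exposed 2 h at 37 °C to 1 μM okadaic acid plus 0–64 μM compound (0.26% DMSO final). Lysates were coated onto ELISA plates and probed with TG3 and an alkaline phosphatase secondary. Absorbance was read at 405 nm with p-nitrophenyl phosphate substrate.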

Cl.Cl.O=C(CCN1CCN(Cc2ccccc2)CC1)c1ccc(F)c2ccccc12 [Example 21, 1-(4″-Fluoronaphth-1″-yl)-3-(4′-benzyl-1′-piperazinyl)-1-propanone dihydrochloride]
IC50: 6.6 µM
